Assay results: patent publication US20030104507A1, “Method for detection of ATP” (priority 2001, published 2003)
Read-outs that look alike come from different tables or passages of the source.

Assays:
LucPpe2m146 = test: Duration of luminescence (signal stability) and effects of media and sera, DTAB, ± pyrophosphate; assay type: biochemical, Photuris pennsylvanica; settings: 10 μM sodium pyrophosphate
Procedure: In some embodiments, the compositions of the invention were added to intact cells to lyse them, and then ATP detected. In other embodiments, conditioned culture media were themselves assayed for ATP. However, the various components of media, such as buffers, sugars, amino acids, pH indicators, salts, etc., as well as the various factors found in serum (equine, bovine, etc.) may inhibit luciferase activity.
The luciferase-luciferin reaction was initiated by combining 100 μl of the reagent composition composition with 100 μl cell media with serum, varying final concentrations of DTAB (as indicated below in Table Q) and 1.0 μM ATP was added to each reaction plus or minus 10 μM sodium pyrophosphate in wells of a 96-well microtiter luminometer plate; each experimental condition was prepared in triplicate. At various times after initiating the reaction, rlu values were recorded using an Orion microplate luminometer (Berthold Detection Systems; Pforzheim, Germany).

[1] = tested on: ATPase activity endogenous to L929 cell lysate; test: Detergent inhibition of ATPase endogenous to L929 cell lysate (ATP remaining by luciferase luminescence, 22° C.); assay type: biochemical; parameters: key to Relative ATPase Activity, slope det/slope lysate: slope with detergent / slope without; ≥1.0 = 100% activity, 0.5 = 50%
Procedure: Three separate detergents in each of four detergent classes were tested: anionic [SDS (Sodium dodecyl sulfate), Bioterge (an α olefin sulfate), and sodium deoxycholate], nonionic [TRITON X-100, BigCHAP (N,N-bis(3-D-Gluconamidopropyl)cholamide) and THESIT (polyethylene glycol 400 dodecyl ether, Fluka, #88315)], cationic [BDDABr (Benzyldimethyldodecylammonium bromide), CTAB (Cetyltrimethylammonium bromide), and DTAB (dodecyltrimethylammonium bromide)] and zwitterionic [CHAPS (3[(3-Cholamidopropyl)dimethylammonio]propanesulfonic acid), CHAPSO (3-([3-Cholamidopropyl]dimethylammonio)-2-hydroxy-1-propanesulfonate), and Sulfobetaine 3-10 ([…]-N,N-dimethyl-3-ammonio-1-propanesulfonate)]. Detergents were obtained from Sigma, Fluka and Aldrich.
L929 cells (ATCC CCL-1; 1.5×10^5 cells/ml) in F12/DMEM (Hyclone, SH30023) containing 10% horse serum (Hyclone, SH30074) were frozen and thawed for four cycles to create a cell lysate. Then 50 μl of stock detergent solutions [10%, 5.0%, 1.0%, and 0.5% (w/v)] were separately added to 450 μl cell lysate, creating a final detergent concentration in the cell lysate sample of 1.0%, 0.5%, 0.1%, and 0.05%, respectively (these percentage values are those used in Tables D and E herein below). Control samples contained either lysate only or 1.0 μM ATP in 15 mM HEPES buffer (pH 7.5). All samples were incubated at 22° C. (room temperature) for the duration of the experiment.
At various timepoints, 20 μl from each sample/detergent mixture was added to a 96-well luminometer plate in triplicate, and then 100 μl of a solution (“luciferase-luciferin” or “L/L reagent”) containing 25 mM HEPES buffer (pH 7.5), 40 μg luciferase enzyme LucPpe2m146 (Promega, E140), 100 μM luciferin (Promega), and 10 mM MgSO4 was added to each well. The L/L reagent was stored at 4° C. for the duration of the experiment and then allowed to reach ambient temperature just before assaying. After mixing the contents of the plate, light output was measured with a Dynex MLX microtiter plate luminometer (Chantilly, Va.), 0.5 second reads per well with the first measurement taken five minutes after the detergent solution was combined with the sample. The average relative light units and the timepoint at which it was measured (rlu; Table D) and percent of remaining luciferase activity at the timepoint (Table E) are reported; controls were run with each set of experimental conditions as indicated. The cationic and anionic detergents were assayed on one day with one set of controls. The zwitterionic and nonionic detergents were assayed on a separate day with a separate set of controls. The DTAB at 0.5% was assayed on both days (1 and 2).
The experiment was performed as detailed in Example 1. The average relative light unit values and the percent of ATP remaining values are listed below in Table F and G respectively.
The log of the percent of ATP remaining after original timepoint values from Table E and Table G were plotted on the y axis against time (in minutes) on the x axis. The slope of the line generated by these values in the presence of detergent was divided by the slope of the line generated by the values in the absence of detergent (lysate control) resulting in the Relative ATPase Activity values listed below in Table H.
A relative activity value of 1.0 or greater indicates 100% cellular ATPase activity at the concentration of detergent tested. A relative activity value of 0.5 indicates a two-fold (or 50%) decrease in the level of cellular ATPase activity at the concentration of detergent tested when compared to the ATPase activity level in the absence of the detergent. A relative activity value of 0.2 indicates a five-fold (or 80%) decrease in the level of cellular ATPase activity at the concentration of detergent tested when compared to the ATPase activity level in the absence of the detergent.

LucPpe2m90 = assay type: biochemical, Photuris pennsylvanica; settings: for Half life: buffer; for Average rlu: 37° C.
Procedure: The stability of a reagent composition composition comprising LucPpe2 luciferase was compared to a reagent composition comprising LucPpe2m90 and a reagent composition comprising LucPpe2m146, in the presence and absence of 0.1% DTAB. These mutant luciferases are thermostable; they are described in detail in PCT application PCT/US99/30925, filed Dec. 22, 1999.
Each enzyme was diluted to 0.05 mg/ml to a final volume of 1.0 ml in either 25 mM HEPES, pH 8.0 or 20 mM citrate, pH 6.0; both with 100 mM NaCl, 1 mM EDTA, 0.1% gelatin and 5% glycerol. In half of the samples, 0.1% DTAB was added. The enzyme solutions (“reagent compositions”) were incubated at 37° C.
At various timepoints, 10 μl of enzyme solution was transferred to a 96-well luminometer plate in triplicate. Then, in triplicate, 100 μl room temperature luciferase assay reagent (1 mM luciferin, 0.2 mM ATP, 10 MM MgSO4 in 50 mM HEPES, pH 8.0) was added to each 10 μl enzyme solution aliquot, mixed and immediately read in a Dynex MLX microtiter plate luminometer. The ATP in the luciferase assay reagent is at a saturating concentration. The average rlu values are reported, as are the half lives of the reagent composition activity as measured by luminescence (Table P). Half-life was calculated using the formula log (0.5)/slope of the data plotted as time (x axis) versus log value of rlu. The time zero is actually about 2-3 minutes after the mixing of enzyme and substrate; this could account for the lower numbers in the presence of DTAB at time 0 than in the absence of DTAB.

## O=P([O-])([O-])OP(=O)([O-])[O-].[Na+].[Na+].[Na+].[Na+] [Ppi, sodium pyrophosphate]
LucPpe2m146
  decrease of luminescence: ten-fold

## C[C@H](CCC(=O)N(CCCNC(=O)[C@H](O)[C@@H](O)[C@H](O)[C@H](O)CO)CCCNC(=O)[C@H](O)[C@@H](O)[C@H](O)[C@H](O)CO)[C@H]1CC[C@H]2[C@@H]3[C@H](O)C[C@@H]4C[C@H](O)CC[C@]4(C)[C@H]3C[C@H](O)[C@]12C [BIGCHAP, N,N-bis(3-D-Gluconamidopropyl)cholamide]
[1]; 0.05% detergent, 5 min
  Average Relative Light Unit Values: 6410.42 rlu
  Percent ATP Remaining: 100%
[1]; 0.05% detergent, 75 min
  Average Relative Light Unit Values: 2260.45 rlu
  Percent ATP Remaining: 35.3%
[1]; 0.05% detergent, 169 min
  Average Relative Light Unit Values: 1036.69 rlu
  Percent ATP Remaining: 16.2%
[1]; 0.05% detergent, 222 min
  Average Relative Light Unit Values: 487.72 rlu
  Percent ATP Remaining: 7.6%
[1]; 0.05% detergent, 260 min
  Average Relative Light Unit Values: 238.44 rlu
  Percent ATP Remaining: 3.7%
[1]; 0.05 percent detergent
  Relative ATPase Activity, slope det/slope lysate: 1.069
  Slope (log percent ATP remaining vs time in minutes): −0.0056
[1]; 0.1% detergent, 5 min
  Average Relative Light Unit Values: 6607.01 rlu
  Percent ATP Remaining: 100%
[1]; 0.1% detergent, 75 min
  Average Relative Light Unit Values: 2087.01 rlu
  Percent ATP Remaining: 31.6%
[1]; 0.1% detergent, 169 min
  Average Relative Light Unit Values: 1363.07 rlu
  Percent ATP Remaining: 20.6%
[1]; 0.1% detergent, 222 min
  Average Relative Light Unit Values: 634.92 rlu
  Percent ATP Remaining: 9.6%
[1]; 0.1% detergent, 260 min
  Average Relative Light Unit Values: 301.55 rlu
  Percent ATP Remaining: 4.6%
[1]; 0.10 percent detergent
  Relative ATPase Activity, slope det/slope lysate: 0.968
  Slope (log percent ATP remaining vs time in minutes): −0.0051
[1]; 0.5% detergent, 5 min
  Average Relative Light Unit Values: 7438.53 rlu
  Percent ATP Remaining: 100%
[1]; 0.5% detergent, 75 min
  Average Relative Light Unit Values: 3618.22 rlu
  Percent ATP Remaining: 48.6%
[1]; 0.5% detergent, 169 min
  Average Relative Light Unit Values: 2092.69 rlu
  Percent ATP Remaining: 28.1%
[1]; 0.5% detergent, 222 min
  Average Relative Light Unit Values: 1144.80 rlu
  Percent ATP Remaining: 15.4%
[1]; 0.5% detergent, 260 min
  Average Relative Light Unit Values: 677.61 rlu
  Percent ATP Remaining: 9.1%
[1]; 0.50 percent detergent
  Relative ATPase Activity, slope det/slope lysate: 0.782
  Slope (log percent ATP remaining vs time in minutes): −0.0041
[1]; 1.0% detergent, 5 min
  Average Relative Light Unit Values: 7576.05 rlu
  Percent ATP Remaining: 100%
[1]; 1.0% detergent, 75 min
  Average Relative Light Unit Values: 4043.35 rlu
  Percent ATP Remaining: 53.4%
[1]; 1.0% detergent, 169 min
  Average Relative Light Unit Values: 2474.59 rlu
  Percent ATP Remaining: 32.7%
[1]; 1.0% detergent, 222 min
  Average Relative Light Unit Values: 1374.29 rlu
  Percent ATP Remaining: 18.1%
[1]; 1.0% detergent, 260 min
  Average Relative Light Unit Values: 822.65 rlu
  Percent ATP Remaining: 10.9%
[1]; 1.00 percent detergent
  Relative ATPase Activity, slope det/slope lysate: 0.725
  Slope (log percent ATP remaining vs time in minutes): −0.0038

B1: LucPpe2m90: mutant luciferase derived from LucPpe2, SEQ ID NO:2 (protein)
chain: MADKNILYGPEPFYPLEDGTAGEQMFDALSRYADIPGCIALTNAHTKENVLYEEFLKLSCRLAESFKKYGLKQNDTIAVCSENGLQFFLPVIASLYLGIIVAPVNDKYIERELIHSLGIVKPRIVFCSKNTFQKVLNVKSKLKSIETIIILDLNEDLGGYQCLNNFISQNSDSNLDVKKFKPYSFNRDDQVALIMFSSGTTGLPKGVMLTHKNIVARFSLAKDPTFGNAINPTTAILTVIPFHHGFGMMTTLGYFTCGFRVVLMHTFEEKLFLQSLQDYKVESTLLVPTLMAFLAKSALVEKYDLSHLKEIASGGAPLSKEIGEMVKKRFKLNFVRQGYGLTETTSAVLITPKGDAKPGSTGKIVPFHAVKVVDPTTGKILGPNEPGELYFKGPMIMKGYYNNEEATKAIIDNDGWLRSGDIAYYDNDGHFYIVDRLKSLIKYKGYQVAPAEIEGILLQHPYIVDAGVTGIPDEAAGELPAAGVVVQTGKYLNEQIVQDYVASQVSTAKWLRGGVKFLDEIPKGSTGKIDRKVLRQMFEKHTNG
modifications: Mutant of LucPpe2 luciferase
LucPpe2m90; pH 6
  Half life: 8.508 h
LucPpe2m90; pH 8
  Half life: 8.125 h
LucPpe2m90; pH 6.0 + 0.1% DTAB, 0 min
  Average rlu: 16263.53 rlu
LucPpe2m90; pH 6.0 + 0.1% DTAB, 59 min
  Average rlu: 15535.4 rlu
LucPpe2m90; pH 6.0 + 0.1% DTAB, 123 min
  Average rlu: 13421.5 rlu
LucPpe2m90; pH 6.0 + 0.1% DTAB, 183 min
  Average rlu: 14061.8 rlu
LucPpe2m90; pH 6.0 + 0.1% DTAB, 239 min
  Average rlu: 11924.03 rlu
LucPpe2m90; pH 6.0, 0 min
  Average rlu: 20031.03 rlu
LucPpe2m90; pH 6.0, 59 min
  Average rlu: 18453 rlu
LucPpe2m90; pH 6.0, 123 min
  Average rlu: 15966.03 rlu
LucPpe2m90; pH 6.0, 183 min
  Average rlu: 15546.4 rlu
LucPpe2m90; pH 6.0, 239 min
  Average rlu: 14519.63 rlu
LucPpe2m90; pH 8.0 + 0.1% DTAB, 0 min
  Average rlu: 22401.4 rlu
LucPpe2m90; pH 8.0 + 0.1% DTAB, 59 min
  Average rlu: 15332.67 rlu
LucPpe2m90; pH 8.0 + 0.1% DTAB, 123 min
  Average rlu: 12383.75 rlu
LucPpe2m90; pH 8.0 + 0.1% DTAB, 183 min
  Average rlu: 11271.25 rlu
LucPpe2m90; pH 8.0 + 0.1% DTAB, 239 min
  Average rlu: 9551.65 rlu
LucPpe2m90; pH 8.0, 0 min
  Average rlu: 15795.17 rlu
LucPpe2m90; pH 8.0, 59 min
  Average rlu: 15510.77 rlu
LucPpe2m90; pH 8.0, 123 min
  Average rlu: 13735.67 rlu
LucPpe2m90; pH 8.0, 183 min
  Average rlu: 13271.05 rlu
LucPpe2m90; pH 8.0, 239 min
  Average rlu: 11115.13 rlu
